Experiments:
Assay type in all cases: in vivo
[1] = tested on: maize seeds inoculated with Pythium ultimum; experiment: Emergence and vigor of maize seeds inoculated with Pythium ultimum after cyazofamid seed treatment (growth chamber); settings: 160 g/l suspension concentrate, 20 days after sowing
Method: An inoculum of Pythium ultimum isolated from cotton was used to inoculate maize seeds. The infected maize grains were mixed with soil in a ratio of 10:90 v/v, respectively. The seeds were treated as depicted in the Table 1 below. The seeds used in treatments 1, 3 and 4 were inoculated with Pythium ultimum. The said seeds were cultivated in a growth chamber at a temperature of 22° C., for a 10 h dark/14 h light photoperiod. The seed arrangement was 10 seeds/plot (pot 10×10 cm); 3rep1/treatment. [table] The % emergence of seeds and the % vigor was observed 20 days after sowing of seeds.

Wheat seeds = experiment: Emergence speed index (ESI) of treated seeds, wheat; settings: suspension concentrate of 40% cyazofamid
Method: (§1) The seed emergence index was evaluated for seeds of different crops including corn, cotton and wheat treated with cyazofamid. The treatment protocol and the results are disclosed in the table below. […] A suspension concentrate of 40% cyazofamid was used in the treatment.

Cotton seeds = experiment: Emergence speed index (ESI) of treated seeds, cotton; settings: suspension concentrate of 40% cyazofamid
Method: as §1

wheat grains = experiment: Plant growth improvement of wheat grains treated with cyazofamid, field trials
Excerpt: The present inventors have determined the plant growth improvement in wheat grains treated with cyazofamid in field trials. The treatments employed have been depicted in table 4 below. The results in terms of crop establishment in field, root weight, shoot weight and the total plant weight have been indicated in table 5 below: [table]

[2] = tested on: seeds of different crops including corn, cotton and wheat
Method: as §1

Corn seeds = experiment: Emergence speed index (ESI) of treated seeds, corn; settings: suspension concentrate of 40% cyazofamid
Method: as §1

[3] = seed treatment 10 g/100/kg seeds
[4] = seed treatment 50 g/100/kg seeds
[5] = 10 g ai/100 kg (25 ml/100 kg seeds)
[6] = 20 g ai/100 kg (50 ml/100 kg seeds)
[7] = 30 g ai/100 kg (75 ml/100 kg seeds)
[8] = 50 g ai/100 kg (125 ml/100 kg seeds)
[9] = 100 g ai/100 kg (250 ml/100 kg seeds)

Cc1ccc(-c2c(Cl)nc(C#N)n2S(=O)(=O)N(C)C)cc1 [Cyazofamid, 4-chloro-2-cyano-N, N-dimethyl-5-p-tolylimidazole-1-sulfonamide]
% emergence (20 DAS) [1, 3]: 76.67% | % vigor (20 DAS) [1, 3]: 86.67% | % emergence (20 DAS) [1, 4]: 73.33% | % vigor (20 DAS) [1, 4]: 83.33% | Emergence speed index (ESI) (Wheat seeds; 10 g ai/100 kg): 22.7 | Emergence speed index (ESI) (Wheat seeds; 50 g ai/100 kg): 23.0 | Emergence speed index (ESI) (Wheat seeds; 100 g ai/100 kg): 22.5 | Emergence speed index (ESI) (Cotton seeds; 10 g ai/100 kg): 6.9 | Emergence speed index (ESI) (Cotton seeds; 50 g ai/100 kg): 6.3 | Emergence speed index (ESI) (Cotton seeds; 100 g ai/100 kg): 6.5 | Root weight (wheat grains; [5]): 3.1 g | Shoot weight (wheat grains; [5]): 5.9 g | Total plant weight (wheat grains; [5]): 9.0 g | Crop establishment plants/m row 25 DAA (wheat grains; [5]): 81.5 plants/m row | Crop establishment plants/m row 38 DAA (wheat grains; [5]): 74.5 plants/m row | Root weight (wheat grains; [6]): 3.1 g | Shoot weight (wheat grains; [6]): 5.3 g | Total plant weight (wheat grains; [6]): 8.4 g | Crop establishment plants/m row 25 DAA (wheat grains; [6]): 73.1 plants/m row | Crop establishment plants/m row 38 DAA (wheat grains; [6]): 79.4 plants/m row | Root weight (wheat grains; [7]): 3.8 g | Shoot weight (wheat grains; [7]): 5.4 g | Total plant weight (wheat grains; [7]): 9.2 g | Crop establishment plants/m row 25 DAA (wheat grains; [7]): 74.8 plants/m row | Crop establishment plants/m row 38 DAA (wheat grains; [7]): 80.8 plants/m row | Root weight (wheat grains; [8]): 3.0 g | Shoot weight (wheat grains; [8]): 5.0 g | Total plant weight (wheat grains; [8]): 8.1 g | Crop establishment plants/m row 25 DAA (wheat grains; [8]): 75.6 plants/m row | Crop establishment plants/m row 38 DAA (wheat grains; [8]): 82.5 plants/m row | Root weight (wheat grains; [9]): 2.9 g | Shoot weight (wheat grains; [9]): 5.2 g | Total plant weight (wheat grains; [9]): 8.1 g | Crop establishment plants/m row 25 DAA (wheat grains; [9]): 74.0 plants/m row | Crop establishment plants/m row 38 DAA (wheat grains; [9]): 79.9 plants/m row | crop establishment in field, root weight, shoot weight and total plant weight compared with untreated control (wheat grains; in words, treated wheat grains, 10-100 g ai/100 kg): higher | phytotoxicity in the emergent plants ([2]; in vivo): no phytotoxicity observed | emergence index of treated seeds compared with untreated seeds ([2]; in words, corn, cotton and wheat seeds, 10-100 g ai/100 kg): more efficient than untreated seeds | Emergence speed index (ESI) (Corn seeds; 10 g ai/100 kg): 32.7 | Emergence speed index (ESI) (Corn seeds; 50 g ai/100 kg): 32.9 | Emergence speed index (ESI) (Corn seeds; 100 g ai/100 kg): 32.6

Reference: patent US20250107526A1, “METHOD OF IMPROVING PLANT GROWTH” (UPL CORPORATION LIMITED, priority 2022, published 2025)
